# According to paper PMC10916402, “Meropenem-ANT3310, a unique β-lactam-β-lactamase inhibitor combination with expanded antibacterial spectrum against Gram-negative pathogens including carbapenem-resistant Acinetobacter baumannii” (Antimicrobial Agents and Chemotherapy, 2024):
# Like-named read-outs stand apart in the source and are kept apart here.
# Tests used:
# [1] = system: carbapenem-resistant Acinetobacter baumannii (CRAB) clinical isolates; assay: Broth microdilution MIC, CRAB isolates; format: cell-based; details: for CLSI % Sus: for MEM-ANT3310 % inhibited at ≤8 µg/mL; for EUCAST % Res / EUCAST % Sus: EUCAST BP; for MIC90: read-out: MIC90
# Method in brief: (§1)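 Broth microdilution per CLSI and EUCAST in cation-adjusted Mueller Hinton broth, iron-depleted for cefiderocol; ANT3310 panels prepared fresh on test day. Isolates collected 2018–2019, identity confirmed by MALDI-TOF. MIC taken as first well without visible growth, interpreted with 2023 CLSI and EUCAST breakpoints.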
# [2] = system: KPC-producing Enterobacterales (KPC-CRE); assay: organism not typed; format: cell-based
# Method in brief: as §1
# [3] = system: OXA-producing Enterobacterales (OXA-CRE); assay: organism not typed; format: cell-based
# Method in brief: as §1
# [4] = system: P. aeruginosa clinical isolates; assay: Broth microdilution MIC, P. aeruginosa clinical isolates; format: cell-based, Pseudomonas aeruginosa; details: 502 P. aeruginosa, 2019 global collection
# Method in brief: as §1
# [5] = system: A. baumannii ACC00445 (OXA-23); assay: MIC against the isolate used in the infection models; format: cell-based; details: Acinetobacter baumannii
# Protocol: MICs for all antimicrobial agents were determined at IHMA by broth microdilution in accordance with both CLSI ([17]) and EUCAST ([18]) guidelines. Microtiter panels were prepared by IHMA and stored at −70°C in cation-adjusted Mueller Hinton broth (CAMHB) (Becton Dickinson). Iron-depleted CAMHB was used to test cefiderocol. Panels containing ANT3310 were prepared fresh on the day of testing. […] MIC values corresponded to the first well with no visible growth. Quality control testing was performed on each day of testing with E. coli ATCC 25922, P. aeruginosa ATCC 27853, K. pneumoniae ATCC 700603 and BAA 1705, and A. baumannii NCTC 13304. MICs were interpreted using 2023 CLSI ([17]) and EUCAST ([18]) BPs.
# [6] = system: A. baumannii ACC00445 (OXA-23); assay: Murine thigh infection model; format: in vivo, neutropenic male CD-1 mice; details: 9-h model, MEM 300 mg/kg IV every 2 h alone
# [7] = system: A. baumannii ACC00445 (OXA-23); assay: Murine lung infection model; format: in vivo, neutropenic male CD-1 mice; details: 14-h model, MEM IV 30 mg/kg
# [8] = set-up: method as in PMID 14517194, PMID 20851549; details: 2 g MEM q8h as a 3-h IV infusion; cited from earlier work
# [9] = set-up: method as in PMID 32297801; details: 2 g MEM q8h as a 3-h IV infusion, MEM-vaborbactam clinical trials; cited from earlier work
# [10] = 2018 Global collection, CRAB, N 363
# [11] = 2019 Global collection, CRAB (MEM MICs >4 µg/mL), N 340
# [12] = 2019 Global collection, CRAB, N 340
# [13] = 180 KPC-producing Enterobacterales, EUCAST BP
# [14] = 252 OXA-producing Enterobacterales, EUCAST BP
smiles,measurement,setting,value
"C[C@@H](O)[C@H]1C(=O)N2C(C(=O)O)=C(S[C@@H]3CN[C@H](C(=O)N(C)C)C3)[C@H](C)[C@H]12 [MEM, meropenem]",CLSI % Sus,"[1]; 2018 Global collection, CRAB, N 363, CLSI BP",0%
same,EUCAST % Res,[1]; [10],98.6%
same,EUCAST % Sus,[1]; [10],0%
same,MIC50,[1]; [11],>32 mg/L
same,Number of isolates inhibited at MIC of 8 µg/mL,[1]; [11],9
same,Number of isolates inhibited at MIC of 16 µg/mL,[1]; [11],12
same,Number of isolates inhibited at MIC of 32 µg/mL,[1]; [11],66
same,Number of isolates inhibited at MIC of >32 µg/mL,[1]; [11],253
same,CLSI % Res,"[1]; 2019 Global collection, CRAB, N 340, CLSI BP, for MEM-ANT3310 % at ≥16 µg/mL",100%
same,CLSI % Sus,"[1]; 2019 Global collection, CRAB, N 340, CLSI BP",0%
same,EUCAST % Res,[1]; [12],97.3%
same,EUCAST % Sus,[1]; [12],0%
same,MIC90,"[1]; Acinetobacter baumannii, 2018 Global collection, CRAB (MEM MICs >4 µg/mL), N 363",> 32 mg/L
same,MIC90,"[1]; Acinetobacter baumannii, 2019 Global collection, CRAB (MEM MICs >4 µg/mL), N 340",> 32 mg/L
same,MIC50,"[1]; Acinetobacter baumannii, CRAB isolates 2018–2019 (n = 703), ANT3310 at 8 µg/mL, read-out: MIC50",> 32 mg/L
same,MIC90,"[1]; Acinetobacter baumannii, CRAB isolates 2018–2019 (n = 703), ANT3310 at 8 µg/mL",> 32 mg/L
same,MIC50,[2],> 32 mg/L
same,MIC90,[2],> 32 mg/L
same,MIC90,"[2]; 180 KPC-producing Enterobacterales, 2018 global collection",>32 mg/L
same,CLSI % Res,"[2]; 180 KPC-producing Enterobacterales, CLSI BP, for MEM-ANT3310 % at ≥16 µg/mL",98.9%
same,CLSI % Sus,"[2]; 180 KPC-producing Enterobacterales, CLSI BP, for MEM-ANT3310 % inhibited at ≤8 µg/mL",0%
same,EUCAST % Res,[2]; [13],88.3%
same,EUCAST % Sus,[2]; [13],1.1%
same,MIC50,[3],16 mg/L
same,MIC90,[3],> 32 mg/L
same,MIC90,"[3]; 252 OXA-producing Enterobacterales, 2018 global collection",>32 mg/L
same,CLSI % Res,"[3]; 252 OXA-producing Enterobacterales, CLSI BP, for MEM-ANT3310 % at ≥16 µg/mL",89.7%
same,CLSI % Sus,"[3]; 252 OXA-producing Enterobacterales, CLSI BP, for MEM-ANT3310 % inhibited at ≤8 µg/mL",0%
same,EUCAST % Res,[3]; [14],74.6%
same,EUCAST % Sus,[3]; [14],10.5%
same,Number of isolates inhibited at MIC of 0.25 µg/mL,[4],97
same,Number of isolates inhibited at MIC of 0.5 µg/mL,[4],109
same,Number of isolates inhibited at MIC of 1 µg/mL,[4],87
same,Number of isolates inhibited at MIC of 2 µg/mL,[4],27
same,Number of isolates inhibited at MIC of 4 µg/mL,[4],25
same,Number of isolates inhibited at MIC of 8 µg/mL,[4],27
same,Number of isolates inhibited at MIC of 16 µg/mL,[4],15
same,Number of isolates inhibited at MIC of 32 µg/mL,[4],9
same,Number of isolates inhibited at MIC of >32 µg/mL,[4],26
same,Number of isolates inhibited at MIC of ≤0.125 µg/mL,[4],80
same,MIC50,"[4]; Pseudomonas aeruginosa, read-out: MIC50",0.5 mg/L
same,MIC90,"[4]; Pseudomonas aeruginosa, read-out: MIC90",8 mg/L
same,MIC,[5],64 mg/L
same,bacterial counts compared to the vehicle-treated group,[6],No reductions in bacterial counts
same,efficacy of MEM alone,[7],No efficacy
same,probability of target attainment for MEM MICs ≤8 µg/mL,[8],> 90%
same,safety and tolerability,[9],generally safe and well tolerated
